Several values for one entry are separate records, joined by “and”; a condition that tells them apart may be missing. Equal entries are not always repeated.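 Values below derive from 48-hour exposures of cells grown in 96-well plates, with endpoints linearly interpolated between the two concentrations bracketing the appropriate inhibition level. GI50 is the concentration that inhibits growth by half. Definition used: TGI = concentration required for complete inhibition of growth.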
Columns and labels:
Experiment in all cases: NCI anticancer screen, dose series, 48 h
A549 NSCLC = test system: A549 NSCLC
HCT-15 colon = test system: HCT-15 colon
UO-31 renal = test system: UO-31 renal
MOLT-4 leukemia = test system: MOLT-4 leukemia
HOP-62 NSCLC = test system: HOP-62 NSCLC
CCRF-CEM leukemia = test system: CCRF-CEM leukemia
CAKI-1 renal = test system: CAKI-1 renal
HCC-2998 colon = test system: HCC-2998 colon
SW-620 colon = test system: SW-620 colon
NCI-H460 lung = test system: NCI-H460 lung

Compound: Cc1ccccc1-c1nc2c(N)nc(N)nc2nc1N
- TGI (A549 NSCLC): > 100 µM
- TGI (HCT-15 colon): > 100 µM
- TGI (UO-31 renal): > 100 µM
- TGI (MOLT-4 leukemia): > 100 µM
- TGI (HOP-62 NSCLC): > 100 µM
- TGI (CCRF-CEM leukemia): > 100 µM
- TGI (CAKI-1 renal): > 100 µM
- TGI (HCC-2998 colon): > 100 µM
- TGI (SW-620 colon): > 100 µM
- TGI (NCI-H460 lung): > 100 µM

Compound: COc1ccc2nc(NC(=O)/C(C#N)=C/c3ccccc3)sc2c1
- TGI (A549 NSCLC): > 100 µM
- TGI (HCT-15 colon): > 100 µM
- TGI (UO-31 renal): > 100 µM
- TGI (MOLT-4 leukemia): > 100 µM
- TGI (HOP-62 NSCLC): > 100 µM
- TGI (CCRF-CEM leukemia): 59.7 µM
- TGI (CAKI-1 renal): > 100 µM
- TGI (HCC-2998 colon): > 100 µM
- TGI (SW-620 colon): > 100 µM
- TGI (NCI-H460 lung): > 100 µM

Compound: O=C(CC(NC(=O)C(F)(F)F)C(=O)O)OCc1ccccc1 (configuration not stated)
- TGI (A549 NSCLC): > 100 µM
- TGI (HCT-15 colon): > 100 µM
- TGI (UO-31 renal): > 100 µM
- TGI (MOLT-4 leukemia): > 100 µM
- TGI (HOP-62 NSCLC): > 100 µM
- TGI (CCRF-CEM leukemia): > 100 µM
- TGI (CAKI-1 renal): > 100 µM
- TGI (HCC-2998 colon): > 100 µM
- TGI (SW-620 colon): > 100 µM
- TGI (NCI-H460 lung): > 100 µM

Compound: O=c1c(F)cn2c(=O)n1CCCCCCCn1c(=O)c(F)cn(c1=O)CCCCCCC2
- TGI (A549 NSCLC): > 100 µM
- TGI (HCT-15 colon): > 100 µM
- TGI (UO-31 renal): > 100 µM
- TGI (MOLT-4 leukemia): > 100 µM
- TGI (HOP-62 NSCLC): > 100 µM
- TGI (CCRF-CEM leukemia): > 100 µM
- TGI (CAKI-1 renal): > 100 µM
- TGI (HCC-2998 colon): > 100 µM
- TGI (SW-620 colon): > 100 µM
- TGI (NCI-H460 lung): > 100 µM

Compound: NCCN1CCCCCc2ccccc21
- TGI (A549 NSCLC): > 10 µM
- TGI (HCT-15 colon): > 10 µM
- TGI (UO-31 renal): > 10 µM
- TGI (MOLT-4 leukemia): > 10 µM
- TGI (HOP-62 NSCLC): > 10 µM
- TGI (CCRF-CEM leukemia): > 10 µM
- TGI (CAKI-1 renal): > 10 µM
- TGI (HCC-2998 colon): > 10 µM
- TGI (SW-620 colon): > 10 µM
- TGI (NCI-H460 lung): > 10 µM

Compound: COc1cc2ccc3c4cc(OC)c(OC)cc4c[n+](C)c3c2cc1O
- TGI (A549 NSCLC): > 100 µM
- TGI (HCT-15 colon): > 100 µM
- TGI (UO-31 renal): > 100 µM
- TGI (MOLT-4 leukemia): > 100 µM
- TGI (HOP-62 NSCLC): > 100 µM
- TGI (CCRF-CEM leukemia): > 100 µM
- TGI (CAKI-1 renal): > 100 µM
- TGI (HCC-2998 colon): > 100 µM
- TGI (SW-620 colon): > 100 µM
- TGI (NCI-H460 lung): > 86.7 µM

Compound: O=c1[nH]c(NCc2ccncc2)nc2nc[nH]c12
- TGI (A549 NSCLC): > 100 µM
- TGI (HCT-15 colon): > 100 µM
- TGI (UO-31 renal): > 100 µM
- TGI (MOLT-4 leukemia): > 100 µM
- TGI (HOP-62 NSCLC): > 100 µM
- TGI (CCRF-CEM leukemia): > 100 µM
- TGI (CAKI-1 renal): > 100 µM
- TGI (HCC-2998 colon): > 100 µM
- TGI (SW-620 colon): > 100 µM
- TGI (NCI-H460 lung): > 100 µM

Compound: CCOC(=O)c1c(N2CCCC2)[nH]c(=O)c(C(c2ccc(OC)cc2)c2c(O)c(C(=O)OCC)c(N3CCCC3)[nH]c2=O)c1O
- TGI (A549 NSCLC): > 100 µM
- TGI (HCT-15 colon): > 100 µM
- TGI (UO-31 renal): > 100 µM
- TGI (MOLT-4 leukemia): > 100 µM
- TGI (HOP-62 NSCLC): > 100 µM
- TGI (CCRF-CEM leukemia): > 100 µM
- TGI (CAKI-1 renal): 71.1 µM
- TGI (HCC-2998 colon): > 100 µM
- TGI (SW-620 colon): > 100 µM
- TGI (NCI-H460 lung): > 100 µM

Compound: NC1=CC(=O)c2c(O)ccc(O)c2C1=O
- TGI (A549 NSCLC): 49.6 µM
- TGI (HCT-15 colon): > 56.1 µM
- TGI (UO-31 renal): 15.7 µM
- TGI (MOLT-4 leukemia): > 34.9 µM
- TGI (HOP-62 NSCLC): 64.9 µM
- TGI (CCRF-CEM leukemia): 11.4 µM
- TGI (CAKI-1 renal): 66.8 µM
- TGI (HCC-2998 colon): 24.2 µM
- TGI (SW-620 colon): 15.2 µM
- TGI (NCI-H460 lung): 25.2 µM

Compound: CN(C)C(=O)C(F)(F)C(c1ccc(F)cc1)C1C(=O)N(C)C(=O)N(C)C1=O (configuration not stated)
- TGI (A549 NSCLC): > 100 µM
- TGI (HCT-15 colon): > 100 µM
- TGI (UO-31 renal): > 100 µM
- TGI (MOLT-4 leukemia): > 100 µM
- TGI (HOP-62 NSCLC): > 100 µM
- TGI (CCRF-CEM leukemia): > 100 µM
- TGI (CAKI-1 renal): > 100 µM
- TGI (HCC-2998 colon): > 100 µM
- TGI (SW-620 colon): > 100 µM
- TGI (NCI-H460 lung): > 100 µM

Compound: COC(=O)/C=C(/C=C1/C(C#N)=C(N)N(c2ccc(Cl)cc2)C1(C)/C(=C\C(=O)OC)C(=O)OC)C(=O)OC (configuration not stated)
- TGI (A549 NSCLC): > 100 µM
- TGI (HCT-15 colon): 50.2 µM
- TGI (UO-31 renal): 41.2 µM
- TGI (MOLT-4 leukemia): 78.9 µM
- TGI (HOP-62 NSCLC): > 100 µM
- TGI (CCRF-CEM leukemia): > 100 µM
- TGI (CAKI-1 renal): 45.5 µM
- TGI (HCC-2998 colon): 39.2 µM
- TGI (SW-620 colon): 30.8 µM
- TGI (NCI-H460 lung): 46.3 µM

Compound: Cc1c2ccnc(C(N)=O)c2c(C)c2c1[nH]c1ccccc12
- GI50 (A549 NSCLC): 3.28 µM
- TGI (A549 NSCLC): 37.1 µM and 15.8 µM
- TGI (HCT-15 colon): 41.1 µM and > 100 µM
- GI50 (UO-31 renal): 5.6 µM
- TGI (UO-31 renal): 25.2 µM and 21.7 µM
- TGI (MOLT-4 leukemia): 25.1 µM and 12.9 µM
- GI50 (HOP-62 NSCLC): 4.03 µM
- TGI (HOP-62 NSCLC): 26.8 µM and 16.9 µM
- GI50 (CCRF-CEM leukemia): 3.64 µM
- TGI (CCRF-CEM leukemia): 46.6 µM and > 100 µM
- GI50 (CAKI-1 renal): 4.82 µM
- TGI (CAKI-1 renal): 9.58 µM and 26.4 µM
- GI50 (HCC-2998 colon): 4.67 µM
- TGI (HCC-2998 colon): 50 µM and 19.4 µM
- TGI (SW-620 colon): 45.6 µM and 40.8 µM
- GI50 (NCI-H460 lung): 2.62 µM
- TGI (NCI-H460 lung): 16.2 µM and 13.7 µM

Compound: CC(=O)NNc1nc(C)c(C(=O)NNC(=O)C(=O)Nc2ccc([N+](=O)[O-])cc2[N+](=O)[O-])s1
- TGI (A549 NSCLC): > 100 µM
- TGI (HCT-15 colon): > 100 µM
- TGI (UO-31 renal): > 100 µM
- TGI (MOLT-4 leukemia): > 100 µM
- TGI (HOP-62 NSCLC): > 100 µM
- TGI (CCRF-CEM leukemia): 79.6 µM
- TGI (CAKI-1 renal): > 100 µM
- TGI (HCC-2998 colon): > 100 µM
- TGI (SW-620 colon): > 100 µM
- TGI (NCI-H460 lung): > 100 µM

Compound: CCOC1C=CC(=O)C(CO)O1 (configuration not stated)
- TGI (A549 NSCLC): 34.9 µM
- TGI (HCT-15 colon): 25.3 µM
- TGI (UO-31 renal): 4.77 µM
- TGI (MOLT-4 leukemia): 21.2 µM
- TGI (HOP-62 NSCLC): 28.4 µM
- TGI (CCRF-CEM leukemia): 6.07 µM
- TGI (CAKI-1 renal): 27.3 µM
- TGI (HCC-2998 colon): 34.4 µM
- TGI (SW-620 colon): 29.6 µM
- TGI (NCI-H460 lung): 30.9 µM

Compound: CC(=O)Nc1nc(Cl)cc(NCC2(CO)CCC2)n1
- TGI (A549 NSCLC): > 100 µM
- TGI (HCT-15 colon): > 100 µM
- TGI (UO-31 renal): > 100 µM
- TGI (MOLT-4 leukemia): > 100 µM
- TGI (HOP-62 NSCLC): > 100 µM
- TGI (CCRF-CEM leukemia): > 100 µM
- TGI (CAKI-1 renal): > 100 µM
- TGI (HCC-2998 colon): > 100 µM
- TGI (SW-620 colon): > 100 µM
- TGI (NCI-H460 lung): > 100 µM

Compound: OCc1ccc2c(c1)CC1(C2)Cc2cc3c(cc2C1O)CCC3 (configuration not stated)
- TGI (A549 NSCLC): > 70.7 µM
- TGI (HCT-15 colon): > 44.2 µM
- TGI (UO-31 renal): 24.1 µM
- TGI (MOLT-4 leukemia): 21.1 µM
- TGI (HOP-62 NSCLC): 17.7 µM
- TGI (CCRF-CEM leukemia): > 44.9 µM
- TGI (CAKI-1 renal): 27 µM
- TGI (HCC-2998 colon): > 45.3 µM
- TGI (SW-620 colon): 24 µM
- TGI (NCI-H460 lung): 17.1 µM

Compound: [N-]=[N+]=CC(=O)C1CCCN1C(=O)c1ccccc1 (configuration not stated)
- TGI (A549 NSCLC): > 10 µM
- TGI (HCT-15 colon): > 10 µM
- TGI (UO-31 renal): > 10 µM
- TGI (MOLT-4 leukemia): > 10 µM
- TGI (HOP-62 NSCLC): > 10 µM
- TGI (CCRF-CEM leukemia): > 10 µM
- TGI (CAKI-1 renal): > 10 µM
- TGI (HCC-2998 colon): > 10 µM
- TGI (SW-620 colon): > 10 µM
- TGI (NCI-H460 lung): > 10 µM

From PubChem BioAssay (NCI)
